From ChEMBL document CHEMBL1201862, “PubChem BioAssay data set” (2004)
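Dose response: 5 concentrations. Exposure: 48 h. Format: 96-well plates. Endpoint: linear interpolation; highest concentration if not reached. GI50: concentration for 50% inhibition of growth.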 Active and inactive are the calls of the source. No stated cut-off is given here; in the data, active = GI50 up to about 1.1 µM and inactive = higher.

Assays:
Experiment in all cases: growth of human tumour cells (NCI), 48 h
NCI-H226 = test system: NCI-H226
OVCAR-8 = test system: OVCAR-8
SK-MEL-28 = test system: SK-MEL-28
Hs-578T = test system: Hs-578T
T47D = test system: T47D
RPMI-8226 = test system: RPMI-8226
SF-295 = test system: SF-295
A498 = test system: A498
A549 = test system: A549
OVCAR-4 = test system: OVCAR-4
HCC 2998 = test system: HCC 2998
UACC-257 = test system: UACC-257
HOP-62 = test system: HOP-62
HCT-116 = test system: HCT-116
HL-60 = test system: HL-60
RXF 393 = test system: RXF 393
K562 = test system: K562
COLO 205 = test system: COLO 205

Compound	GI50 (NCI-H226)	GI50 (OVCAR-8)	GI50 (SK-MEL-28)	GI50 (Hs-578T)	GI50 (T47D)	GI50 (RPMI-8226)	GI50 (SF-295)	GI50 (A498)	GI50 (A549)	GI50 (OVCAR-4)	GI50 (HCC 2998)	GI50 (UACC-257)	GI50 (HOP-62)	GI50 (HCT-116)	GI50 (HL-60)	GI50 (RXF 393)	GI50 (K562)	GI50 (COLO 205)
Cc1nc(C(N)=S)sc1C(=O)C/C(=N/N)C(=O)Nc1cccc(Cl)c1C	> 100 µM (inactive)	> 100 µM (inactive)	> 100 µM (inactive)	> 100 µM (inactive)	> 100 µM (inactive)	> 100 µM (inactive)	> 100 µM (inactive)	> 100 µM (inactive)	> 100 µM (inactive)	> 100 µM (inactive)	> 100 µM (inactive)	> 100 µM (inactive)	> 100 µM (inactive)	> 100 µM (inactive)	> 100 µM (inactive)	> 100 µM (inactive)	> 100 µM (inactive)	–
CC1OC(OC2C(O[C@H]3CC[C@@]4(C)C(=CC[C@H]5[C@@H]6C[C@@H]7O[C@]8(CC[C@@H](CO)CO8)[C@@H](C)[C@@H]7[C@@]6(C)CC[C@@H]54)C3)OC(CO)C(O)C2OC2OC(CO)C(O)C(O)C2O)C(O)C(O)C1O (stereo not given in full)	1.97 µM (inactive)	1.78 µM (inactive)	1.95 µM (inactive)	2.91 µM (inactive)	1.87 µM (inactive)	1.94 µM (inactive)	–	2.01 µM (inactive)	2.07 µM (inactive)	1.91 µM (inactive)	1.62 µM (inactive)	1.77 µM (inactive)	1.72 µM (inactive)	1.65 µM (inactive)	1.44 µM (inactive)	1.53 µM (inactive)	1.71 µM (inactive)	1.88 µM (inactive)
N/C(=N\Nc1cccc(Cl)c1)c1cccnc1	33.9 µM (inactive)	> 78.3 µM (inactive)	72.8 µM (inactive)	> 100 µM (inactive)	18.9 µM (inactive)	14.7 µM (inactive)	35.7 µM (inactive)	22.2 µM (inactive)	52.7 µM (inactive)	13.7 µM (inactive)	36 µM (inactive)	32.3 µM (inactive)	> 100 µM (inactive)	29.9 µM (inactive)	4.28 µM (inactive)	23.1 µM (inactive)	4.04 µM (inactive)	29 µM (inactive)
Cc1ccc(/N=N/c2ccc(O)c(CN(C)C)c2)cc1C	26.9 µM (inactive)	37.2 µM (inactive)	5.47 µM (inactive)	16.4 µM (inactive)	14 µM (inactive)	26.5 µM (inactive)	40.7 µM (inactive)	22.3 µM (inactive)	34.7 µM (inactive)	43.4 µM (inactive)	16.4 µM (inactive)	23.1 µM (inactive)	15.5 µM (inactive)	36.3 µM (inactive)	10.1 µM (inactive)	17.5 µM (inactive)	13.9 µM (inactive)	11.9 µM (inactive)
Cc1ccc(C[N+](C)(C)N)cc1C	> 10 µM (inactive)	> 10 µM (inactive)	> 10 µM (inactive)	> 10 µM (inactive)	> 10 µM (inactive)	> 10 µM (inactive)	> 10 µM (inactive)	> 10 µM (inactive)	> 10 µM (inactive)	> 10 µM (inactive)	> 10 µM (inactive)	> 10 µM (inactive)	> 10 µM (inactive)	> 10 µM (inactive)	> 10 µM (inactive)	> 10 µM (inactive)	> 10 µM (inactive)	> 10 µM (inactive)
COc1cc(C2C3=C(COC3=O)Oc3cc4c(cc32)OCO4)ccc1O (stereo not given)	9.55 µM (inactive)	0.69 µM (active)	0.847 µM (active)	0.329 µM (active)	0.49 µM (active)	0.372 µM (active)	0.127 µM (active)	0.668 µM (active)	0.41 µM (active)	0.321 µM (active)	0.893 µM (active)	–	0.394 µM (active)	0.448 µM (active)	0.182 µM (active)	0.306 µM (active)	0.148 µM (active)	0.225 µM (active)
C[N+]1(C)C2Cc3ccccc3C1Cc1ccccc12	> 100 µM (inactive)	> 100 µM (inactive)	> 100 µM (inactive)	> 100 µM (inactive)	> 100 µM (inactive)	62.7 µM (inactive)	> 100 µM (inactive)	> 100 µM (inactive)	> 100 µM (inactive)	> 100 µM (inactive)	> 100 µM (inactive)	> 100 µM (inactive)	> 100 µM (inactive)	> 100 µM (inactive)	> 100 µM (inactive)	> 100 µM (inactive)	–	> 100 µM (inactive)
C=C1CC2(C[C@@H](c3ccccc3)O[C@@H](c3ccccc3)C2)OC1=O (stereo not given in full)	16 µM (inactive)	2.49 µM (inactive)	1.86 µM (inactive)	2.31 µM (inactive)	1.85 µM (inactive)	0.341 µM (active)	13.6 µM (inactive)	9.95 µM (inactive)	5.89 µM (inactive)	5.7 µM (inactive)	6.7 µM (inactive)	3.35 µM (inactive)	14.4 µM (inactive)	1.9 µM (inactive)	0.44 µM (active)	1.94 µM (inactive)	2.22 µM (inactive)	2.03 µM (inactive)
CCCCCCCC(=O)OC[n+]1cccc(-c2c(COC(=O)NC(C)C)c(COC(=O)NC(C)C)c3n2CCC3)c1	97.5 µM (inactive)	82 µM (inactive)	> 100 µM (inactive)	> 100 µM (inactive)	> 93.3 µM (inactive)	> 86.1 µM (inactive)	> 84.1 µM (inactive)	35.3 µM (inactive)	> 96.2 µM (inactive)	> 100 µM (inactive)	> 100 µM (inactive)	> 100 µM (inactive)	> 63.1 µM (inactive)	50 µM (inactive)	24.3 µM (inactive)	44.2 µM (inactive)	83.6 µM (inactive)	> 87.7 µM (inactive)
O=C1OC[C@H]2[C@@H]1[C@H]1O[C@@H]2C2=C(CCC2)C1=O	> 100 µM (inactive)	> 100 µM (inactive)	> 100 µM (inactive)	> 100 µM (inactive)	> 100 µM (inactive)	> 100 µM (inactive)	> 100 µM (inactive)	> 100 µM (inactive)	> 100 µM (inactive)	> 100 µM (inactive)	> 100 µM (inactive)	> 100 µM (inactive)	> 100 µM (inactive)	> 100 µM (inactive)	> 100 µM (inactive)	> 100 µM (inactive)	> 100 µM (inactive)	> 100 µM (inactive)
Cc1cc(C)n(C2OC(CO)C(O)C(O)C2O)c(=S)c1C#N (stereo not given)	> 100 µM (inactive)	> 100 µM (inactive)	> 100 µM (inactive)	> 100 µM (inactive)	> 100 µM (inactive)	> 100 µM (inactive)	> 100 µM (inactive)	> 100 µM (inactive)	> 100 µM (inactive)	> 100 µM (inactive)	> 100 µM (inactive)	> 100 µM (inactive)	> 100 µM (inactive)	> 100 µM (inactive)	> 100 µM (inactive)	> 100 µM (inactive)	> 10 µM (inactive)	> 100 µM (inactive)
O=C1NC(=O)C2=C1CCC2O (stereo not given)	> 100 µM (inactive)	> 100 µM (inactive)	> 100 µM (inactive)	> 100 µM (inactive)	> 100 µM (inactive)	> 100 µM (inactive)	> 100 µM (inactive)	> 100 µM (inactive)	> 100 µM (inactive)	> 100 µM (inactive)	> 100 µM (inactive)	> 100 µM (inactive)	> 100 µM (inactive)	> 100 µM (inactive)	> 100 µM (inactive)	> 100 µM (inactive)	> 100 µM (inactive)	> 100 µM (inactive)
CCN(CCO)CC1COc2ccccc2O1 (stereo not given)	> 100 µM (inactive)	> 100 µM (inactive)	> 100 µM (inactive)	> 100 µM (inactive)	> 100 µM (inactive)	–	> 100 µM (inactive)	> 100 µM (inactive)	> 100 µM (inactive)	> 100 µM (inactive)	> 100 µM (inactive)	> 100 µM (inactive)	> 100 µM (inactive)	> 100 µM (inactive)	> 100 µM (inactive)	> 100 µM (inactive)	> 100 µM (inactive)	> 100 µM (inactive)
COC(=O)C(=O)C(C(=O)C(=O)Nc1ccc(C)c(C)c1)c1nc2ccc([N+](=O)[O-])cc2nc1O (stereo not given)	> 100 µM (inactive)	> 100 µM (inactive)	> 100 µM (inactive)	> 100 µM (inactive)	> 100 µM (inactive)	> 100 µM (inactive)	> 100 µM (inactive)	> 100 µM (inactive)	> 100 µM (inactive)	> 100 µM (inactive)	> 100 µM (inactive)	> 100 µM (inactive)	> 100 µM (inactive)	> 100 µM (inactive)	> 100 µM (inactive)	> 100 µM (inactive)	> 100 µM (inactive)	–
Clc1ccc(C(c2ccc(Cl)cc2)N2CCNCC2)cc1	–	2.07 µM (inactive)	1.81 µM (inactive)	2.74 µM (inactive)	2.04 µM (inactive)	1.83 µM (inactive)	2.28 µM (inactive)	1.78 µM (inactive)	2.74 µM (inactive)	2.48 µM (inactive)	1.46 µM (inactive)	2.12 µM (inactive)	1.87 µM (inactive)	1.73 µM (inactive)	1.86 µM (inactive)	4.22 µM (inactive)	1.58 µM (inactive)	1.96 µM (inactive)
O=C1CC2OCC=C3CN4CCC5(C(=O)O)C(N1)C2C3CC45 (stereo not given)	> 100 µM (inactive)	> 100 µM (inactive)	> 100 µM (inactive)	> 100 µM (inactive)	> 100 µM (inactive)	–	> 100 µM (inactive)	> 100 µM (inactive)	> 100 µM (inactive)	> 100 µM (inactive)	> 100 µM (inactive)	> 100 µM (inactive)	> 100 µM (inactive)	> 100 µM (inactive)	> 100 µM (inactive)	> 100 µM (inactive)	> 100 µM (inactive)	> 100 µM (inactive)
